According to PubChem BioAssay (NCI):
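Cells were grown in 96-well plates and exposed to each compound for 48 hours at five concentrations; endpoints were interpolated linearly between bracketing concentrations, or set to the highest concentration if not reached. Abbreviation: GI50, concentration required for 50% inhibition of growth. TGI: concentration producing complete growth inhibition.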

Assays:
Assay in all cases: NCI anticancer screen, dose series, 48 h
[1] = tested on: SN12C renal
[2] = tested on: OVCAR-5 ovarian
[3] = tested on: HS 578T breast
[4] = tested on: UO-31 renal
[5] = tested on: M14 melanoma
[6] = tested on: KM12 colon
[7] = tested on: COLO 205 colon
[8] = tested on: TK-10 renal
[9] = tested on: OVCAR-3 ovarian
[10] = tested on: U251 CNS
[11] = tested on: HOP-92 NSCLC
[12] = tested on: NCI-H460 lung
[13] = tested on: NCI-H23 lung
[14] = tested on: NCI-H226 lung
[15] = tested on: BT-549 breast
[16] = tested on: CCRF-CEM leukemia
[17] = tested on: NCI/ADR-RES ovarian
[18] = tested on: EKVX NSCLC
[19] = tested on: HOP-62 NSCLC
[20] = tested on: SK-OV-3 ovarian
[21] = tested on: SNB-75 CNS
[22] = tested on: DU-145 prostate
[23] = tested on: CAKI-1 renal
[24] = tested on: MCF7 breast
[25] = tested on: SR leukemia
[26] = tested on: SF-268 CNS
[27] = tested on: MDA-MB-231 breast
[28] = tested on: K-562 leukemia
[29] = tested on: HCT-15 colon
[30] = tested on: SF-539 CNS
[31] = tested on: MALME-3M melanoma
[32] = tested on: SNB-19 CNS
[33] = tested on: HCC-2998 colon
[34] = tested on: RPMI-8226 leukemia
[35] = tested on: IGROV1 ovarian
[36] = tested on: SK-MEL-5 melanoma
[37] = tested on: HT29 colon
[38] = tested on: SW-620 colon
[39] = tested on: NCI-H522 lung
[40] = tested on: OVCAR-4 ovarian
[41] = tested on: MDA-MB-435
[42] = tested on: T-47D breast
[43] = tested on: HCT-116 colon
[44] = tested on: 786-0 renal
[45] = tested on: SK-MEL-2 melanoma
[46] = tested on: A549 NSCLC
[47] = tested on: A498 renal
[48] = tested on: ACHN renal
[49] = tested on: HL-60(TB) leukemia
[50] = tested on: PC-3 prostate
[51] = tested on: LOX IMVI melanoma
[52] = tested on: SF-295 CNS
[53] = tested on: MOLT-4 leukemia
[54] = tested on: RXF 393 renal
[55] = tested on: OVCAR-8 ovarian

CO[C@H](C(=O)[C@@H](O)[C@@H](C)O)[C@@H]1Cc2cc3cc(O[C@H]4C[C@@H](O[C@H]5C[C@@H](O)[C@H](O)C(C)O5)[C@H](O)C(C)(O)O4)cc(O)c3c(O)c2C(=O)[C@H]1O[C@H]1C[C@@H](O[C@H]2C[C@@H](O[C@H]3C[C@@H](OC)[C@H](O)C(C)O3)[C@@H](O)C(C)O2)[C@H](O)C(C)O1 (stereo not given in full)
GI50 [1]: 868 nM | TGI [1]: > 16800 nM | GI50 [2]: 2950 nM | TGI [2]: > 16800 nM | GI50 [3]: 708 nM | TGI [3]: > 16800 nM | GI50 [4]: 4060 nM | TGI [4]: > 16800 nM | GI50 [5]: 2560 nM | TGI [5]: > 16800 nM | GI50 [6]: 786 nM | TGI [6]: > 16800 nM | GI50 [7]: 720 nM | TGI [7]: 4940 nM | GI50 [8]: 2800 nM | TGI [8]: > 16800 nM | GI50 [9]: 956 nM | TGI [9]: > 16800 nM | GI50 [10]: 387 nM | TGI [10]: > 16800 nM | GI50 [11]: 528 nM | TGI [11]: 8660 nM | GI50 [12]: 469 nM | TGI [12]: > 16800 nM | GI50 [13]: 831 nM | TGI [13]: > 16800 nM | GI50 [14]: 796 nM | TGI [14]: 5340 nM | GI50 [15]: 2040 nM | TGI [15]: > 16800 nM | GI50 [16]: 5000 nM | TGI [16]: > 16800 nM | GI50 [17]: > 16800 nM | TGI [17]: > 16800 nM | GI50 [18]: 1500 nM | TGI [18]: > 16800 nM | GI50 [19]: 521 nM | TGI [19]: > 16800 nM | GI50 [20]: 671 nM | TGI [20]: > 16800 nM | GI50 [21]: 63 nM | TGI [21]: 6840 nM | GI50 [22]: 976 nM | TGI [22]: > 16800 nM | GI50 [23]: > 16800 nM | TGI [23]: > 16800 nM | GI50 [24]: 185 nM | TGI [24]: > 16800 nM | GI50 [25]: 250 nM | TGI [25]: > 16800 nM | GI50 [26]: 726 nM | TGI [26]: > 16800 nM | GI50 [27]: 1890 nM | TGI [27]: > 16800 nM | GI50 [28]: 951 nM | TGI [28]: > 16800 nM | GI50 [29]: > 16800 nM | TGI [29]: > 16800 nM | GI50 [30]: 658 nM | TGI [30]: 12200 nM | GI50 [31]: 212 nM | TGI [31]: 14000 nM | GI50 [32]: 761 nM | TGI [32]: > 16800 nM | GI50 [33]: 1920 nM | TGI [33]: > 16800 nM | GI50 [34]: 833 nM | TGI [34]: > 16800 nM | GI50 [35]: 809 nM | TGI [35]: > 16800 nM | GI50 [36]: 509 nM | TGI [36]: 2970 nM | GI50 [37]: 1160 nM | TGI [37]: > 16800 nM | GI50 [38]: 1310 nM | TGI [38]: > 16800 nM | GI50 [39]: 354 nM | TGI [39]: 14800 nM | GI50 [40]: 1350 nM | TGI [40]: > 16800 nM | GI50 [41]: 895 nM | TGI [41]: > 16800 nM | GI50 [42]: 447 nM | TGI [42]: > 16800 nM | GI50 [43]: 542 nM | TGI [43]: > 16800 nM | GI50 [44]: 1510 nM | TGI [44]: > 16800 nM | GI50 [45]: 704 nM | TGI [45]: 5180 nM | GI50 [46]: 828 nM | TGI [46]: > 16800 nM | GI50 [47]: 369 nM | TGI [47]: 1290 nM | GI50 [48]: 3680 nM | TGI [48]: > 16800 nM | GI50 [49]: 11200 nM | TGI [49]: > 16800 nM | GI50 [50]: 1420 nM | TGI [50]: > 16800 nM | GI50 [51]: 384 nM | TGI [51]: > 16800 nM | GI50 [52]: 666 nM | TGI [52]: > 16800 nM | GI50 [53]: 1200 nM | TGI [53]: > 16800 nM | GI50 [54]: 1270 nM | TGI [54]: 7940 nM | GI50 [55]: 1550 nM | TGI [55]: > 16800 nM
